In patent US12139481B2, “Compositions comprising macrocycle derivatives incorporating bridged macrocycles and methods of producing and using same” (Southwestern Oklahoma State University, priority 2015, dated 2024):
Read-outs that look alike come from different tables or passages of the source.

Key:
[1] = system: L. donovani promastigotes; assay: Antileishmanial Alamar Blue assay on promastigotes; format: cell-based, Leishmania donovani; conditions: for X more potent than Pentamidine: L. donovani, ratio of molar IC50 to Pentamidine
Experimental: Methods: The compounds were screened in vitro against the promastigote forms of the leishmania parasites employing the Alamar Blue assay as discussed below.
Antileishmanial activity of the compounds was tested in vitro against a culture of L. donovani promastigotes, grown in RPMI 1640 medium supplemented with 10% fetal calf serum (FCS, Gibco Chem. Co., Grand Island, NY) at 26° C. A 3-day-old culture was diluted to 5×10^5 promastigotes/mL. Drug dilutions (50-3.1 μg/mL) were prepared directly in cell suspension in 96-well plates. Plates were incubated at 26° C. for 48 hours, and growth of leishmania promastigotes was determined by Alamar Blue assay. Standard fluorescence was measured on a FLUOstar® Galaxy plate reader (BMG Lab Technologies, Ortenberg, Germany) at an excitation wavelength of 544 nm and emission wavelength of 590 nm. Pentamidine and amphotericin B were used as the standard antileishmanial agents. Percent growth was calculated and plotted versus test concentration for computing the IC50 values.

[2] = system: Cryptococcus neoformans ATCC 90113; assay: Antimicrobial microdilution assay against Cryptococcus neoformans (modified CLSI/NCCLS, optical density); format: cell-based; conditions: for X more potent than Amphotericin B: C. neoformans, ratio of molar IC50 to Amphotericin B; for C. neoformans IC50 / IC50: in vitro, C. neoformans ATCC 90113; for IC50: read-out: C. neoformans IC50 (mol/L)
Experimental: Summary: Various macrocyclic derivatives constructed in accordance with the presently disclosed and/or claimed inventive concept(s) were screened in vitro against Cryptococcus neoformans ATCC 90113 using a microdilution assay. The minimum fungicidal concentration (MFC), the lowest test concentration that kills the organism, was determined in broth media.
Antimicrobial assay: Cryptococcus neoformans ATCC 90113 were obtained from the American Type Culture Collection (Manassas, VA.). The susceptibility testing was performed using a modified version of the CLSI (formerly NCCLS) methods (see below), and optical density was used to monitor growth. Samples were serially diluted in 20% DMSO/saline and transferred in duplicate to 96-well flat bottom microplates. Microbial inocula were prepared by correcting the OD630 of cell/spore suspensions in incubation broth RPMI at pH 6.0 to afford final desired target inocula. Amphotericin B (“AMB;” ICN Biomedicals, OH) was used as drug control. The organism concentration was read at 630 nm using the Biotek Powerwave XS plate reader (Bio-Tek instruments, VT) prior to and after incubation. Minimum fungicidal concentrations were determined by removing 5 μL from each clear well, transferring to agar, and incubating until growth was seen. The MFC/MBC is defined as the lowest test concentration that kids the organism (allows no growth on agar).
References for NCCLS methods referenced above: 1 NCCLS. Reference method for broth dilution antifungal susceptibility testing of yeasts, Vol. 22. Approved standard, 2nd ed. Wayne: National Committee for Clinical Laboratory Standards; 2002: 1-51. 2 NCCLS. Reference method for broth dilution antifungal susceptibility testing of conidium forming filamentous fungi, Vol. 18. Proposed standard M38-P. Wayne: National Committee for Clinical Laboratory Standards; 1998: 1-39. 3 NCCLS. Methods for dilution antimicrobial susceptibility tests for bacteria that grow aerobically, Vol. 20. NCCLS Document M7-A5. Wayne: National Committee for Clinical Laboratory Standards; 2000: 1-58.
The term “IC50” as used herein will be understood to refer to a test concentration in mol/L that affords 50% inhibition of the microbe relative to negative and positive controls. […] The abbreviation “MFC” as used herein will be understood to refer to a minimum fungicidal concentration, or the lowest test concentration in mol/L that kills the organism. All IC50s are calculated using the XLfit® fit curve fitting software (ID Business Solutions Ltd, Guildford, Surrey, UK).
General Experimental Procedures. All organisms were obtained from the American Type Culture Collection (Manassas, VA) and include the fungi Candida albicans ATCC 90028, C. glabrata ATCC 90030, C. krusei ATCC 6258, and Cryptococcus neoformans ATCC 90113, and the bacteria Staphylococcus aureus ATCC 29213 and methicillin-resistant S. aureus ATCC 33591 (MRS). All organisms were tested using modified versions of the CLSI (formerly NCCLS) methods. For all organisms, optical density was used to monitor growth (NCCLS, Reference Method for Broth Dilution Antifungal Susceptibility Testing of Yeasts; Approved Standard M27-A2. National Committee on Clinical Laboratory Standards, 2002 22 (15); and NCCLS, Methods for Dilution Antimicrobial Susceptibility Tests for Bacteria that Grow Aerobically; Approved Standard, Seventh Edition M7-A7. National Committee on Clinical Laboratory Standards, 2006. 26(2)).
Samples (dissolved in DMSO) were serially-diluted in 20% DMSO/saline and transferred (10 μL) in duplicate to 96 well flat bottom microplates.

[3] = promastigotes, 48 hours, Alamar Blue
[4] = promastigotes, 48 hours, Alamar Blue, read-out: L. donavani IC50

Molecule | X more potent than Amphotericin B [2] | C. neoformans IC50 [2] [µg/mL] | IC50 [2] [µM] | also measured
Cl.Cl.Cl.Cl.Cl.Cl.Cl.Cl.c1cc(CN2CCNCCCN3CCN(CC3)CC2)ccc1CN1CCNCCCN2CCN(CC2)CC1 [OB45B, p-SB-homocyclens HCl salt] | 0.67 | 0.290 |  | X more potent than Pentamidine [1]: 0.13; L. donovani IC50 [1, 3]: 34.55 µg/mL; IC50 ([1]; promastigotes, 48 hours, Alamar Blue, HCl salt, read-out: L. donavani IC50): 42.2 µM; IC50 ([2]; HCl salt): 0.354 µM
CC(=O)[O-].CC(=O)[O-].CC(=O)[O-].CC(=O)[O-].O=[N+]([O-])c1ccc(CC2CNCCN(Cc3ccc(CN4CCCN5CCN(CCCNCC4)CC5)cc3)CCCN3CCN(CC3)C2)cc1.[Zn+2].[Zn+2] (centres unmarked) [SJA235, [Zn2(bis-SB-C-Ar-NO2)(OAc)4]] | 0.13 | 1.930 |  | X more potent than Pentamidine [1]: 0.16; L. donovani IC50 [1, 3]: 34.77 µg/mL
[Zn(dcp1-SB-cyclen)(OAc)]PF6 [OB110A] | 0.30 | 0.610 | 0.805 | X more potent than Pentamidine [1]: 0.11; L. donovani IC50 [1, 3]: 38.32 µg/mL; IC50 [1, 4]: 50.6 µM
Clc1cc(CN2CCCNCCN(Cc3cc(Cl)nc(Cl)c3)CCCNCC2)cc(Cl)n1 [DJD29, (DCP)2Cyclam] |  |  |  | X more potent than Pentamidine [1]: 0.28; L. donovani IC50 [1, 3]: 9.76 µg/mL; IC50 [1, 4]: 18.8 µM
N=C(N)c1ccc(OCCCCCOc2ccc(C(=N)N)cc2)cc1 [PENT, Pentamidine, reference compound] |  |  |  | X more potent than Pentamidine [1]: 1.00; IC50 ([1]; Leishmania donovani, 48 h, read-out: L. donavani IC50 (mol/L)): 5.32 µM; IC50 ([1]; Leishmania donovani, promastigotes, 48 hours, Alamar Blue, read-out: L. donovani IC50): 1.81 µg/mL; IC50 ([1]; Leishmania donovani, read-out: IC50 against L. donovani): 5.32 µM
[Fe2(m-cyclam-homocyclen)][FeCl4]2•7H2O [AW048] | 0.17 | 1.660 | 1.38 | 
[Cl][Fe-2]([Cl])([Cl])[Cl].[Cl][Fe-2]([Cl])([Cl])[Cl].[Fe+2].[Fe+2].c1cc(CN2CCCN3CCNCCCN(CC3)CC2)ccc1CN1CCCN2CCNCCCN(CC2)CC1 [TJH413B, [Fe2(H2-p-CB-cyclams)][FeCl4]2] | 0.03 | 7.380 | 6.95 | 
Fe(Bn2Cyclam)Cl2•0.5 H2O [TJH398A] |  |  |  | X more potent than Pentamidine [1]: 1.20; L. donovani IC50 [1, 3]: 2.28 µg/mL; IC50 [1, 4]: 4.42 µM
Clc1ccc2c(N3CCNCCN(c4ccnc5cc(Cl)ccc45)CCNCC3)ccnc2c1.[Cl-].[Cl-].[Mn+2] [K-PAA2-0004-P8-TJH410, {[Mn(4,10-bis(7-chloroquinoline)cyclen]Cl2}] | 0.04 | 4.123 | 6.64 | 
[Zn(Me1-SB-Cyclam)(C2H3O2)]PF6 [DLM32] | 0.01 | 17.280 | 33.9 | 
[Zn2(m-CB-Homocyclens)(OAc)0.5][PF6]3.5 [CDG037] | 0.18 | 1.620 | 1.32 | 
Ni(Py-SB-Cyclam)Cl2•3H2O [ADS20] | 0.01 | 18.590 | 37.1 | 
CC(=O)[O-].CN1CCCN2CCN(CCCN(Cc3ccccc3)CC2)CC1.F[P-](F)(F)(F)(F)F.[Co+2] [TRH16, [Co(Bn1Me1Bcyclam)(OAc)]PF6] | 0.02 | 9.190 | 15.5 | 
[Ni2(m-SB-cyclam-cyclen)(OAc)][PF6]3 [CMB033] | 0.16 | 1.710 | 1.5 | 
CN1CCCN2CCN(C)CCCN(CC1)CC2.F[P-](F)(F)(F)(F)F.[Cl-].[Cl-].[Co+3] [SAH06#2, [Co(Bcyclam)Cl2]PF6] | 0.01 | 19.220 | 36.3 | 
CC(=O)[O-].CC(=O)[O-].F[P-](F)(F)(F)(F)F.F[P-](F)(F)(F)(F)F.[Ni+2].[Ni+2].c1cc(CN2CCCN3CCNCCCN(CC3)CC2)ccc1CN1CCCN2CCNCCCN(CC2)CC1 [TJH415B, [Ni2(H2-p-CB-cyclams)(OAc)2][PF6]2] | 0.30 | 0.850 | 0.787 | 
CN1CCN2CCN(CC1)CCN(Cc1nc3ccccc3[nH]1)CC2.[Cl-].[Cl-].[Mn+2] [SJA227, [Mn(CB-BI-cyclen)(Cl)2]] | 0.04 | 1.930 | 5.63 | 
[Cu2(m-SB-cyclam-cyclen)(OAc)][PF6]3•2H2O [CMB034] | 0.35 | ≤ 0.800 | 0.676 | 
c1cc(CN2CCNCCCN3CCN(CC3)CC2)cc(CN2CCNCCCN3CCN(CC3)CC2)c1 [OB46, m-SB-Homocyclens] | 0.03 | 4.850 | 9.21 | 
m-CB-cyclam-cyclen [DGJ036] | 0.02 | 5.800 | 10.5 | 
[Co2(p-CB-Homocyclens)(OAc)2][PF6]2 [TJH379A] | 0.32 | ≤ 0.800 | 0.74 | 
CN1CCCN2CCN(C)CCN(CC1)CC2.F[P-](F)(F)(F)(F)F.[Cl-].[Cl-].[Mn+3] [DLM10, [Mn(B13N4)Cl2]PF6] | 0.01 | 9.522 | 18.6 | 
C1CNCCN2CCCNCCN(C1)CCC2.O.[Cl-].[Cl-].[Cl-].[Fe+3] [SLK36, Fe(H2PBCyclam)Cl3•H2O] | 0.03 | 3.330 | 7.92 | 
C1CNCCN2CCCNCCN(C1)CCC2.O.O.O.[Cl-].[Cl-].[Cl-].[Mn+3] [SLK37, Mn(H2PBCyclam)Cl3•3H2O] | 0.06 | 1.780 | 3.91 | 
[Zn2(m-SB-cyclam-cyclen)(OAc)2][PF6]2•3.3H2O [CMB035] | 0.33 | ≤ 0.800 | 0.711 | 
[Co(Me1Pic1-CB-cyclen)](PF6)3 [KRW48] | 0.18 | 1.090 | 1.3 | 
C1CNCCN2CCCNCCN(C1)CCC2.CC(=O)[O-].F[P-](F)(F)(F)(F)F.F[P-](F)(F)(F)(F)F.F[P-](F)(F)(F)(F)F.[NH4+].[NH4+].[Ni+2] [SLK39B, [Ni(H2PBCyclam)(OAc)]PF6•2NH4PF6] | 0.03 | 5.890 | 7.1 | 
[Zn(Me1Pic1-CB-cyclen)](PF6)2 [KRW49] | 0.03 | 5.230 | 7.53 | 
[Mn(Py-SB-Cyclam)Cl]PF6•3H2O [ADS17] | 0.03 | 5.220 | 8.6 | 
